Assay results reported in BindingDB's records for doi:10.1016/j.bmcl.2004.12.007 (Cerep, 2005).

Molecular target: Integrin alpha-L/beta-2 (Homo sapiens, UniProt P05107+P20701)
Experiment: Inhibitory concentration against leukocyte function-associated antigen-1 in HSB-2 human lymphoblast and H1HeLa cell adhesion assay

Chain of Integrin alpha-L/beta-2 (P20701 whole entry): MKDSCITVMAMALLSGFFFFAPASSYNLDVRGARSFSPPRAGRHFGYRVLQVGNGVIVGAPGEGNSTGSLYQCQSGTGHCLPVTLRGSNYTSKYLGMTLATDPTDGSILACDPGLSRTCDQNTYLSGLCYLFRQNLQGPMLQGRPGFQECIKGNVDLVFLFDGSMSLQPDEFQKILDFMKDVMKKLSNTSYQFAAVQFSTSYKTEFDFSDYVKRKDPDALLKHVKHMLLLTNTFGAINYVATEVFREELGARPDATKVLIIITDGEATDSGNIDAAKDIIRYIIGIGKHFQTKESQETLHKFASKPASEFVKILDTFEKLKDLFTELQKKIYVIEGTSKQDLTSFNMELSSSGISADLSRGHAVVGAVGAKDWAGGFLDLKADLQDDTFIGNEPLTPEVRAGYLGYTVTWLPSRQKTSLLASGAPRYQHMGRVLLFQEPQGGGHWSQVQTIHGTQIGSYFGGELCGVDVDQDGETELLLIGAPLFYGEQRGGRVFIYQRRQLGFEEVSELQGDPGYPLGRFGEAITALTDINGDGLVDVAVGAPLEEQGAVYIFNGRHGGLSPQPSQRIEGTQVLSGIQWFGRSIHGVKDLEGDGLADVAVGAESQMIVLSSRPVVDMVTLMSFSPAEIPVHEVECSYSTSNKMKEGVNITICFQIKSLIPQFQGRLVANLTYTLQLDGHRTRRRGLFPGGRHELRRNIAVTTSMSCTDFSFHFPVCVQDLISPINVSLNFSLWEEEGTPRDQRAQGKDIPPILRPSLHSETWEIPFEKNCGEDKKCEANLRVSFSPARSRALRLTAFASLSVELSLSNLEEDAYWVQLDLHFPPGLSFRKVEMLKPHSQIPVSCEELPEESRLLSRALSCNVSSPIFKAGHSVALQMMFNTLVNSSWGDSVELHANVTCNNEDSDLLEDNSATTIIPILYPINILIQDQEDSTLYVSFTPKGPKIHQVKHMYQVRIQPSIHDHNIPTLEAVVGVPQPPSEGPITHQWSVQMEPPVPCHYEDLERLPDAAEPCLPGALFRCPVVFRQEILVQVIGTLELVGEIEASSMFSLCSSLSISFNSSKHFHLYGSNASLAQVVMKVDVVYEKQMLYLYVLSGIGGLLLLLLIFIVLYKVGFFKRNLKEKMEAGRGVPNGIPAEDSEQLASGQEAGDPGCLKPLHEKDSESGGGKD
Chain of Integrin alpha-L/beta-2 (P05107 whole entry H354Q): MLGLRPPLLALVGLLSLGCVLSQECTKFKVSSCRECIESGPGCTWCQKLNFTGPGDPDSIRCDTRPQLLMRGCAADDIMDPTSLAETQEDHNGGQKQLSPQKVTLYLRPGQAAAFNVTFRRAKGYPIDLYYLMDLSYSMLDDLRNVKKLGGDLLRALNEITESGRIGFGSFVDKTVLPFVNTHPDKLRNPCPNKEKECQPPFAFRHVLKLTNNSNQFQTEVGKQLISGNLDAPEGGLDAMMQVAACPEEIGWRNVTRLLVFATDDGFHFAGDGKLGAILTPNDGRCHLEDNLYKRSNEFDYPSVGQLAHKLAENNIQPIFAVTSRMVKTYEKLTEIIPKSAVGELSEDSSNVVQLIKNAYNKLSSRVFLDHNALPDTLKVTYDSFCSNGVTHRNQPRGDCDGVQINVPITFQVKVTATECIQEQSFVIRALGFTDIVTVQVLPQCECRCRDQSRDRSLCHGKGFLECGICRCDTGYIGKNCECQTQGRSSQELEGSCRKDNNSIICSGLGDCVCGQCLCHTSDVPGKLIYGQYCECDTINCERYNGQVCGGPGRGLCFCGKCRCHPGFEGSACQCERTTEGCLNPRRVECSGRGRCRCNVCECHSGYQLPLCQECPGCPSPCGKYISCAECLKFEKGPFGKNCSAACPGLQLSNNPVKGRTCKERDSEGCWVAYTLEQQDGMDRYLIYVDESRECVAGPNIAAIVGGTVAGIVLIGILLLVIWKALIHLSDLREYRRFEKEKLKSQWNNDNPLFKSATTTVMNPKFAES

SMILES	IC50 [µM]
N#Cc1ccc(-c2cccc(CN[C@H]3Cc4c(O)n(-c5cc(Cl)cc(Cl)c5)c(=O)n4C3)c2)cc1 [3''-{[(6S,7aS)-2-(3,5-Dichloro-phenyl)-1,3-dioxo-hexahydro-pyrrolo[1,2-c]imidazol-6-ylamino]-methyl}-biphenyl-4-carbonitrile]	0.175
CN(Cc1cccc(-c2ccc(Br)cc2)c1)[C@H]1Cc2c(O)n(-c3cc(Cl)cc(Cl)c3)c(=O)n2C1 [(6S,7aS)-6-[(4''-Bromo-biphenyl-3-ylmethyl)-methyl-amino]-2-(3,5-dichloro-phenyl)-tetrahydro-pyrrolo[1,2-c]imidazole-1,3-dione]	0.175
